Data reported in patent US20200031848A1, “AR-V7 INHIBITORS” (Hoffmann-La Roche Inc., priority 2016, published 2020).

Experiments:
[1] = biological target: T1, AR transcriptional activity (Homo sapiens, UniProt P10275, T878A); assay: eGFP cellular AR transcription assay; format: cell-based; settings: LNCaP eGFP cell line
T1 construct: The LNCaP eGFP cell line was stably transfected with an androgen-responsive probasin-derived promoter fused to an eGFP reporter; endogenous in cells; host or cells: LNCaP eGFP (LN-ARR2PB-eGFP) human prostate cancer cells
T1 sequence (P10275 1-920 T878A): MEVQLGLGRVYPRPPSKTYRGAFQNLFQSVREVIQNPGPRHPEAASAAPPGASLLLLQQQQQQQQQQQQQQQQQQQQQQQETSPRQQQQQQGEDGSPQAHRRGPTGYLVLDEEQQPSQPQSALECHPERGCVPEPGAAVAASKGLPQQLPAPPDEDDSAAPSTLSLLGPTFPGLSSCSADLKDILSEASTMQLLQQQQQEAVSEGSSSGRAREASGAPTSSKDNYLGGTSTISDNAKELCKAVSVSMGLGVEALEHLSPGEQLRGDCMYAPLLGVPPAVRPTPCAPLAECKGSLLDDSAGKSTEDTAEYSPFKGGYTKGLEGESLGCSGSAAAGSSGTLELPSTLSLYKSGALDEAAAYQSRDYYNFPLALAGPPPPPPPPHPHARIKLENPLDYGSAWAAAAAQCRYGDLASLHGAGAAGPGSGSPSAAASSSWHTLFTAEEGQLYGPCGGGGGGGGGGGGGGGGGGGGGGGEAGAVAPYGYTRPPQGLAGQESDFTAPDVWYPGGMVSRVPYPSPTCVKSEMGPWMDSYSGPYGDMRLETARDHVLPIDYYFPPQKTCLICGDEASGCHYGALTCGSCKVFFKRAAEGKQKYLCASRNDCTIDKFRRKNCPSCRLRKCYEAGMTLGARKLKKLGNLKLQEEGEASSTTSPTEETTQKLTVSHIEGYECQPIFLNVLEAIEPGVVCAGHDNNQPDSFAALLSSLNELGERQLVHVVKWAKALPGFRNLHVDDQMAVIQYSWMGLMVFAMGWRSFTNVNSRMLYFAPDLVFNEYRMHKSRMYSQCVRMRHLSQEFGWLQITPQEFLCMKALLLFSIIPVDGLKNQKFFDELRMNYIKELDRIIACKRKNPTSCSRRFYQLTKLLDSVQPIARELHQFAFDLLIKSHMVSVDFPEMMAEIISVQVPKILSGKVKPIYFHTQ
Excerpt: The DNA-binding domain is an attractive target for inhibition of AR dimerization and/or DNA binding. In silico computational drug discovery methods were used to conduct a virtual screen of >3 million purchasable lead-like compounds from the ZINC database (Irwin, J. et al.^11) to identify potential DBD binders. The in silico methods included large-scale docking, in-site rescoring and consensus voting procedures. It will be understood by a person of skill that COOH and NR2 may include the corresponding ions, for example carboxylate ions and ammonium ions, respectively. Alternatively, where the ions are shown, a person of skill in the art will appreciate that the counter ion may also be present. Furthermore, it will be appreciated by a person of skill that other moieties may include the corresponding ions, and where the ions are shown, a person of skill in the art will appreciate that the counter ion may also be present. […] Where the % inhibition, eGFP IC50 or the PSA IC50 has no value given, this may be because no measurement was taken or the value was not calculated, in the case of the % inhibition. In vitro identification of AR inhibitors targeting AR DBD The selected compounds were assessed with a non-destructive eGFP assay that quantifies levels of AR transcriptional activity, were identified (table below).
(§1) 1. Cell Culture: LNCaP and PC3 human prostate cancer cells were obtained from American Type Culture Collection (ATCC, Manassas, Va.) and grown in RPMI 1640 medium supplemented with 5% fetal bovine serum (FBS) (Invitrogen). The LNCaP eGFP cell line was stably transfected with an androgen-responsive probasin-derived promoter fused to an eGFP reporter (LN-ARR2PB-eGFP) using a lentiviral approach, and were grown in phenol-red-free RPMI 1640 supplemented with 5% CSS. In-house developed MDV3100-resistant LNCaP cells were cultured in RPMI 1640 supplemented with 5% FBS and 10 μM MDV3100. All cells were maintained at 37° C. in 5% CO2.
2. eGFP cellular AR transcription assay: The AR transcriptional activity was assayed as previously described (Tavassoli, P., et al.^12).

[2] = test system: PSA levels secreted into the media; assay: Prostate-specific antigen (PSA) assay; format: cell-based; settings: Homo sapiens, 72 h; in parallel to the eGFP assay, same plates, 3 days
Method: as §1
3. Prostate-specific antigen (PSA) assay: The evaluation of PSA levels secreted into the media was performed in parallel to the eGFP assay using the same plates. After cells were incubated for 3 days, 150 μl of the media was taken from each well, and added to 150 μl of PBS. PSA levels were then evaluated using Cobas e 411 analyzer instrument (Roche Diagnostics) according to the manufacturer's instructions.

in vitro = settings: human, microsomes, pH 7.4
Method: Microsomal incubations were carried out in 96-well plates in 5 aliquots of 40 μL each (one for each time point). […] Control incubations were performed replacing the NADPH-cofactor system with PBS. […] Incubations were performed in duplicates. Five time points over 40 minutes had been analyzed. The reactions were stopped by adding 12 volumes of 90% acetonitrile-water to incubation aliquots, followed by protein sedimentation by centrifuging at 5500 rpm for 5 minutes. Supernatants were analyzed using the HPLC system coupled with tandem mass spectrometer. The elimination constant (kel), half-life (t1/2) and intrinsic clearance (Clint) were determined in plot of […] versus time, using linear regression analysis: […]

Brc1ncn(-c2csc(N3CCOCC3)n2)c1Br [Example 43, 4-[4-(4,5-dibromoimidazol-1-yl)thiazol-2-yl]morpholine]
IC50 [1]: 1.23 µM | IC50 [2]: 1.39 µM | microsomal CLint at 2 μM (in vitro): 165 µL/min/mg

Cc1nc(Br)cn1-c1csc(N2CCOCC2)n1 [Example 42, 4-[4-(4-bromo-2-methyl-imidazol-1-yl)thiazol-2-yl]morpholine]
IC50 [1]: 0.75 µM | IC50 [2]: 0.659 µM | microsomal CLint at 2 μM (in vitro): 72 µL/min/mg

Brc1cn(-c2csc(N3CCOCC3)n2)c(Br)n1 [Example 40, 4-[4-(2,4-dibromoimidazol-1-yl)thiazol-2-yl]morpholine]
IC50 [1]: 0.413 µM | IC50 [2]: 0.42 µM | microsomal CLint at 2 μM (in vitro): 177 µL/min/mg

CSc1nc(Br)cn1-c1csc(N2CCOCC2)n1 [Example 41, 4-[4-(4-bromo-2-methylsulfanyl-imidazol-1-yl)thiazol-2-yl]morpholine]
IC50 [1]: 0.496 µM | IC50 [2]: 0.458 µM | microsomal CLint at 2 μM (in vitro): 198 µL/min/mg

Brc1cn(-c2csc(N3[C@@H]4CC[C@H]3COC4)n2)c(Br)n1 [Example 10, (1R,5S)-8-[4-(2,4-dibromoimidazol-1-yl)thiazol-2-yl]-3-oxa-8-azabicyclo[3.2.1]octane]
IC50 [1]: 0.934 µM | IC50 [2]: 0.817 µM

Brc1cn(-c2csc(N3[C@@H]4CCC[C@H]3COC4)n2)c(Br)n1 [Example 2, (1S,5R)-9-[4-(2,4-dibromoimidazol-1-yl)thiazol-2-yl]-3-oxa-9-azabicyclo[3.3.1]nonane]
IC50 [1]: 0.135 µM | IC50 [2]: 0.074 µM

Clc1c(Br)ncn1-c1csc(N2[C@@H]3CCC[C@H]2COC3)n1 [Example 9, (1R,5S)-9-[4-(4-bromo-5-chloro-imidazol-1-yl)thiazol-2-yl]-3-oxa-9-azabicyclo[3.3.1]nonane]
IC50 [1]: 0.746 µM | IC50 [2]: 0.784 µM
